According to US20240158446A1, “CYCLIC COMPOUND HAVING SELECTIVE INHIBITORY ACTION ON KRAS OVER HRAS AND NRAS” (CHUGAI SEIYAKU KABUSHIKI KAISHA, priority 2021, published 2024):

Legend:
[1] = target: GDP-bound NRAS wild-type protein (Homo sapiens, UniProt P01111); assay: Binding to NRAS by surface plasmon resonance (SPR), Single Cycle Kinetics; conditions: SPR, GDP-bound NRAS wild-type protein vs GDP-bound KRAS wild-type protein
[2] = target: GDP-bound HRAS wild-type protein (Homo sapiens, UniProt P01112); assay: Binding to HRAS by surface plasmon resonance (SPR), Single Cycle Kinetics; conditions: SPR, GDP-bound HRAS wild-type protein vs GDP-bound KRAS wild-type protein
[3] = target: GDP-bound KRAS wild-type protein (Homo sapiens, UniProt P01116); assay: Binding to KRAS by surface plasmon resonance (SPR), Single Cycle Kinetics; conditions: SPR, Single Cycle Kinetics, GDP-bound KRAS wild-type protein; read-out: KRAS KD
[4] = test system: human lung cancer strain NCI-H441;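 also: cell proliferation inhibition after four days measured by CellTiter-Glo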

GDP-bound HRAS wild-type protein, sequence (P01112 whole entry): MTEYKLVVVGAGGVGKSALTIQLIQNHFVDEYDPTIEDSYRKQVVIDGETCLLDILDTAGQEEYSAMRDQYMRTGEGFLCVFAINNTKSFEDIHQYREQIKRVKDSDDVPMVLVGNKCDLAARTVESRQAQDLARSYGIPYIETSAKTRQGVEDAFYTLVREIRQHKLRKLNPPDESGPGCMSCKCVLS
GDP-bound NRAS wild-type protein, sequence (P01111 whole entry): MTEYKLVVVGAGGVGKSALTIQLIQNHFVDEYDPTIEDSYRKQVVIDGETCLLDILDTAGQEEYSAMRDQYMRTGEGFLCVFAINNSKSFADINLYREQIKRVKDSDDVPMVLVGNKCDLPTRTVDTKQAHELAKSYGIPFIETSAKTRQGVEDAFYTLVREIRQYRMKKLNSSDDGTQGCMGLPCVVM
GDP-bound KRAS wild-type protein, sequence (P01116 whole entry): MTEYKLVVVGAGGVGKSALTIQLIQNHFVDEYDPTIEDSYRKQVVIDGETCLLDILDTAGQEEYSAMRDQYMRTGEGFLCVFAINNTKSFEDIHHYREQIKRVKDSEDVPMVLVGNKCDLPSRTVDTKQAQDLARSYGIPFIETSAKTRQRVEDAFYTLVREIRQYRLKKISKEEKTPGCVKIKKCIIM

Row | Structure (SMILES) | Kd [3] [nM] | IC50 [4] [nM] | NRAS/KRAS (ratio of KD value for NRAS to KD value for KRAS) [1] | HRAS/KRAS (ratio of KD value for HRAS to KD value for KRAS) [2]
1 | C=CCC[C@H]1C(=O)N[C@@H]([C@@H](C)CC)C(=O)N(C)CC(=O)N(C)[C@H]2CCCCCN(C2=O)[C@@H](Cc2ccc(C(F)(F)F)cc2)C(=O)N(C)CC(=O)N[C@@H](CCc2cc(F)c(C(F)(F)F)c(F)c2)C(=O)N2C[C@H](OCC)C[C@H]2C(=O)N[C@](C)(CC=C)C(=O)N(C)[C@@H](C2CCCC2)C(=O)N(C)[C@H](C(=O)N2CCOCC2)CC(=O)N1C [PP0879] | 8.6 | 195 | B (a compound having 3 or more and less than 10 is denoted as B) | B (a compound having 3 or more and less than 10 is denoted as B)
2 | CCO[C@@H]1C[C@H]2C(=O)NC3(CCC3)C(=O)N(C)[C@@H](C3CCCC3)C(=O)N(C)[C@H](C(=O)N3CCOCC3)CC(=O)N(C)[C@@H](CC(C)C)C(=O)N[C@@H]([C@@H](C)CC)C(=O)N(C)CC(=O)N(C)[C@H]3CCCCCN(C3=O)[C@@H](Cc3ccc4ccsc4c3)C(=O)N(C)CC(=O)N[C@@H](CCc3cc(F)c(C(F)(F)F)c(F)c3)C(=O)N2C1 [PP0921] | 2.6 | 139 | B (a compound having 3 or more and less than 10 is denoted as B) | B (a compound having 3 or more and less than 10 is denoted as B)
3 | CCO[C@@H]1C[C@H]2C(=O)NC3(CCC3)C(=O)N(C)[C@@H](C3CCCC3)C(=O)N(C)[C@H](C(=O)N3CCOCC3)CC(=O)N(C)[C@@H](Cc3cccc(C)c3)C(=O)N[C@@H]([C@@H](C)CC)C(=O)N(C)CC(=O)N(C)[C@H]3CCCCCN(C3=O)[C@@H](Cc3ccc(C(F)(F)F)cc3)C(=O)N(C)CC(=O)N[C@@H](CCc3cc(F)c(C(F)(F)F)c(F)c3)C(=O)N2C1 [PP0932] | 2.9 | 158 | B (a compound having 3 or more and less than 10 is denoted as B) | B (a compound having 3 or more and less than 10 is denoted as B)
4 | CCO[C@@H]1C[C@H]2C(=O)NC3(CCC3)C(=O)N(C)[C@@H](C3CCCC3)C(=O)N(C)[C@H](C(=O)N(C)C)CC(=O)N(C)[C@@H](Cc3ccccc3F)C(=O)N[C@@H]([C@@H](C)CC)C(=O)N(C)CC(=O)N(C)[C@H]3CCCCCN(C3=O)[C@@H](Cc3ccc(C(F)(F)F)cc3)C(=O)N(C)CC(=O)N[C@@H](CCc3cc(F)c(C(F)(F)F)c(F)c3)C(=O)N2C1 [PP0934] | 0.72 | 51.8 | B (a compound having 3 or more and less than 10 is denoted as B) | B (a compound having 3 or more and less than 10 is denoted as B)
5 | CCO[C@@H]1C[C@H]2C(=O)NC3(CCC3)C(=O)N(C)[C@@H](C3CCCC3)C(=O)N(C)[C@H](C(=O)N(C)C)CC(=O)N(C)[C@@H](Cc3ccc(F)c(F)c3)C(=O)N[C@@H]([C@@H](C)CC)C(=O)N(C)CC(=O)N(C)[C@H]3CCCCCN(C3=O)[C@@H](Cc3ccc(C(F)(F)F)cc3)C(=O)N(C)CC(=O)N[C@@H](CCc3cc(F)c(C(F)(F)F)c(F)c3)C(=O)N2C1 [PP0937] | 1 | 39 | B (a compound having 3 or more and less than 10 is denoted as B) | B (a compound having 3 or more and less than 10 is denoted as B)
6 | CCO[C@@H]1C[C@H]2C(=O)NC3(CCC3)C(=O)N(C)[C@@H](C3CCCC3)C(=O)N(CC)[C@H](C(=O)N3CCOCC3)CC(=O)N(C)[C@@H](CCC(F)F)C(=O)N[C@@H]([C@@H](C)CC)C(=O)N(C)CC(=O)N(C)[C@H]3CCCCCN(C3=O)[C@@H](Cc3ccc(C(F)(F)F)cc3)C(=O)N(C)CC(=O)N[C@@H](CCc3cc(F)c(C(F)(F)F)c(F)c3)C(=O)N2C1 [PP0948] | 3.2 | 234 | A (a compound having 10 or more and less than 20 is denoted as A) | A (a compound having 10 or more and less than 20 is denoted as A)
7 | CCO[C@@H]1C[C@H]2C(=O)NC3(CCC3)C(=O)N(C)[C@@H](C3CCCC3)C(=O)N(CC)[C@H](C(=O)N3CCOCC3)CC(=O)N(C)[C@@H](CC)C(=O)N[C@@H]([C@@H](C)CC)C(=O)N(C)CC(=O)N(C)[C@H]3C/C=C\CCN(C3=O)[C@@H](Cc3ccc(C(F)(F)F)cc3)C(=O)N(C)CC(=O)N[C@@H](CCc3cc(F)c(C(F)(F)F)c(F)c3)C(=O)N2C1 [PP0979] | 1.7 | 281 | AA (a compound having 20 or more is denoted as AA) | A (a compound having 10 or more and less than 20 is denoted as A)
8 | CC[C@H](C)[C@@H]1NC(=O)[C@H](CC(C)C)N(C)C(=O)C[C@@H](C(=O)N2CCOCC2)N(C)C(=O)[C@H](C2CCCC2)N(C)C(=O)C2(CCC2)NC(=O)[C@@H]2[C@@H](OCC(F)F)CCN2C(=O)[C@H](CCc2cc(F)c(C(F)(F)F)c(F)c2)NC(=O)CN(C)C(=O)[C@H](Cc2ccc(C(F)(F)F)cc2)N2CCCCC[C@@H](C2=O)N(C)C(=O)CN(C)C1=O [PP1012] | 0.9 | 41.6 | A (a compound having 10 or more and less than 20 is denoted as A) | B (a compound having 3 or more and less than 10 is denoted as B)

Now those with a lower Kd [3], led by results:

Row | Kd [3] [nM] | IC50 [4] [nM] | Structure (SMILES) | NRAS/KRAS (ratio of KD value for NRAS to KD value for KRAS) [1] | HRAS/KRAS (ratio of KD value for HRAS to KD value for KRAS) [2]
9 | 0.33 | 53.6 | CCO[C@@H]1C[C@H]2C(=O)NC3(CCC3)C(=O)N(C)[C@@H](C3CCCC3)C(=O)N(C)[C@H](C(=O)N(C)C)CC(=O)N(C)[C@@H](CC)C(=O)N[C@@H]([C@@H](C)CC)C(=O)N(C)CC(=O)N(C)[C@H]3CCCCCN(C3=O)[C@@H](Cc3ccc(C(F)(F)F)cc3)C(=O)N(C)CC(=O)N[C@@H](CCc3ccc4sccc4c3)C(=O)N2C1 [PP0892] | B (a compound having 3 or more and less than 10 is denoted as B) | B (a compound having 3 or more and less than 10 is denoted as B)
10 | 0.29 | 75.5 | CCO[C@@H]1C[C@H]2C(=O)NC3(CCC3)C(=O)N(C)[C@@H](C3CCCC3)C(=O)N(C)[C@H](C(=O)N3CCOCC3)CC(=O)N(C)[C@@H](CC(C)C)C(=O)N[C@@H]([C@@H](C)CC)C(=O)N(C)CC(=O)N(C)[C@H]3CCCCCN(C3=O)[C@@H](Cc3ccc4sccc4c3)C(=O)N(C)CC(=O)N[C@@H](CCc3cc(F)c(C(F)(F)F)c(F)c3)C(=O)N2C1 [PP0920] | B (a compound having 3 or more and less than 10 is denoted as B) | B (a compound having 3 or more and less than 10 is denoted as B)
11 | 0.06 | 10.4 | CCO[C@@H]1C[C@H]2C(=O)NC3(CCC3)C(=O)N(C)[C@@H](C3CCCC3)C(=O)N(C)[C@H](C(=O)N(C)C)CC(=O)N(C)[C@@H](CC3CCCC3)C(=O)N[C@@H]([C@@H](C)CC)C(=O)N(C)CC(=O)N(C)[C@H]3C/C=C\CCN(C3=O)[C@@H](Cc3ccc(C(F)(F)F)cc3)C(=O)N(C)CC(=O)N[C@@H](CCc3cc(F)c(C(F)(F)F)c(F)c3)C(=O)N2C1 [PP1112, (2S,8S,12R,14S,20S,23S,27S,30S,36S,38Z)-20-cyclopentyl-27-(cyclopentylmethyl)-8-[2-[3,5-difluoro-4-(trifluoromethyl)phenyl]ethyl]-12-ethoxy-N,N,4,19,22,26,32,35-octamethyl-30-[(1S)-1-methylpropyl]-3,6,9,15,18,21,25,28,31,34,42-undecaoxo-2-[[4-(trifluoromethyl)phenyl]methyl]spiro[1,4,7,10,16,19,22,26,29,32,35-undecazatricyclo[34.5.1.0^10,14]dotetracont-38-ene-17,1′-cyclobutane]-23-carboxamide] | A (a compound having 10 or more and less than 20 is denoted as A) | B (a compound having 3 or more and less than 10 is denoted as B)
12 | 0.056 | 6.5 | CCO[C@@H]1C[C@H]2C(=O)NC3(CCC3)C(=O)N(C)[C@@H](C3CCCC3)C(=O)N(C)[C@H](C(=O)N(C)C)CC(=O)N(C)[C@@H](CC3CCC3)C(=O)N[C@@H]([C@@H](C)CC)C(=O)N(C)CC(=O)N(C)[C@H]3C/C=C\CCN(C3=O)[C@@H](Cc3ccc(C(F)(F)F)cc3)C(=O)N(C)CC(=O)N[C@@H](CCc3cc(F)c(C(F)(F)F)c(F)c3)C(=O)N2C1 [PP1118, (2S,8S,12R,14S,20S,23S,27S,30S,36S,38Z)-27-(cyclobutylmethyl)-20-cyclopentyl-8-[2-[3,5-difluoro-4-(trifluoromethyl)phenyl]ethyl]-12-ethoxy-N,N,4,19,22,26,32,35-octamethyl-30-[(1S)-1-methylpropyl]-3,6,9,15,18,21,25,28,31,34,42-undecaoxo-2-[[4-(trifluoromethyl)phenyl]methyl]spiro[1,4,7,10,16,19,22,26,29,32,35-undecazatricyclo[34.5.1.0^10,14]dotetracont-38-ene-17,1′-cyclobutane]-23-carboxamide] | A (a compound having 10 or more and less than 20 is denoted as A) | B (a compound having 3 or more and less than 10 is denoted as B)
